20 compounds from patent US20240299559A1, “COMPOUNDS THAT MEDIATE PROTEIN DEGRADATION AND METHODS OF USE THEREOF” (Monte Rosa Therapeutics, Inc., priority 2021, published 2024) can be followed below.

A word on the pKi: it is the Ki on a negative log10 scale, so that one unit is a factor of ten. Low readings indicate a high Ki, high ones a low Ki. The Dmax is the greatest extent of degradation seen. Higher therefore signals a fuller loss of target.

One assay concerns the target CRBN-DDB1 (Homo sapiens, UniProt Q96SW2). Briefly: Compound binding to CRBN by HTRF assay. The following applies: CRBN-DDB1 2.5 nM, Cy5-Thalidomide 100 nM probe; Ki from geometric mean of IC50 by Cheng-Prustoff transformation. As for the experimental part: Compound activity was monitored in a Homogenous Time-Resolved Fluorescence (HTRF) assay using 1-[5-({2-[2-(2-{[2-(2,6-dioxopiperidin-3-yl)-1,3-dioxo-2,3-dihydro-1H-isoindol-4-yl]oxy}acetamido)ethoxy]ethyl}carbamoyl)pentyl]-3,3-dimethyl-2-[(1E,3E)-5-[(2E)-1,3,3-trimethyl-5-sulfo-2,3-dihydro-1H-indol-2-ylidene]penta-1,3-dien-1-yl]-3H-indol-1-ium-5-sulfonate as a fluorescent probe. Biochemical assays were conducted in Greiner white 384 well HiBase plates (Cat. No 784075-25) in 10 μL total volume. A one pot detection solution of CRBN-DDB1 (2.5 nM), Anti-His Terbium Cryptate Gold (1×, PerkinElmer Cat. #: 61HI2TLB), and Cy5-Thalidomide (100 nM, Tenova Cat.: T52461) was prepared in 20 mM HEPES, 20 mM NaCl, 0.2 mM TCEP, 0.2 mM EDTA, and 0.005% Tween20 was dispensed to each assay plate. Compounds were stored in dry, ambient temperatures at 10 mM. A 10-point, 1:3 dilution series was prepared from 10 mM stock concentrations in Echo-compatible LDV plates. 10 nL of each compound dilution series was dispensed into assays wells using an Echo 650 (Labcyte inc. USA). 10 nL of 10 mM Lenalidomide was transferred into the active-control wells for the assay and 10 nL of DMSO was transferred into the neutral-control wells. The assay was then allowed to incubate for 30 min at ambient temperature after transferring compound. Plate measurements were taken on a Pherastar FSX (BMG Labtech, Germany) using the HTRF Red filter (Ex. 337 nm, em1:620 nm, em2:665 nm) (Flashes: 50, Integration time: 60-400 us, Z-height: 10 mm, Ratio-multipler: 10,000). The HTRF signal was then subsequently normalized to the neutral and active controls. Analysis and IC50 values were derived using KNIME analytics (KNIME Zurich) transformation and fitting within Collaborative Drug Discovery (Collaborative Drug Discovery USA). Ki was derived from the geometric mean of the IC50 values using the Cheng-Prustoff transformation.
(In TR-FRET formats the signal depends on donor and acceptor labels being close together.)

The target in a further assay is T1, CDK2 (Homo sapiens, UniProt P24941).
T1 construct: HEK293 clonal lines with CRISPR KI HiBiT tag on CDK2 proteins; host or cells: HEK293 clonal line with CRISPR knock-in HiBiT on CDK2, stably expressing LgBiT
Briefly: CDK2 HiBiT assay (degradation, Dmax). The format is cell-based. The following applies: HEK293 clonal lines with CRISPR KI HiBiT tag on CDK2, stably expressing LgBiT; 24 hours incubation. As for the experimental part:
HEK293 clonal lines with CRISPR KI HiBiT tag on CDK2 proteins and stably expressing LgBiT protein were obtained from Promega (Madison, WI). Cells were plated at 5000 cells per well using Multiflo (BioTek) in 384-well white solid bottom plates (Corning, 3570BC) in 25 ul volume in DMEM media (DMEM, high glucose, HEPES, no phenol red (ThermoFisher Scientific, 21063029)) containing 10% FBS (Corning, 35-075-CV), 1% Penicillin/Streptomycin (ThermoFisher Scientific, 15140-122). Cells were incubated for 16 hours at 37° C., 5% CO2. 75 nL of a compound at 30 μM were dosed into the plate using an Echo® 650 liquid handler (Labcyte). Cells were incubated at 37° C., 5% CO2 for 24 hours. 5 ul of HiBiT Lysis Reagent (Promega, N3030) is added using Combi Multidrop (ThermoFisher Scientific), plates are incubated for 15′ at 37° C., 5% CO2 and then signal was read on a Pherastar FSX using “LUM plus” optic module.
Analysis was performed in Scinamic (Scinamic, Cambridge, MA). Luminescence response (R) was calculated by the formula: response=100*(S−N)/(P−N) where S is the signal of the well, N and P the mean negative and positive control values respectively of the same plate. The luminescence response was then fitted in Scinamic using a 3-parameter agonist logistic fit (hillslope=1, EC50>0, top/bottom unconstrained).

pKi: −log10 of the molar value.

Sequence of CRBN-DDB1 (Q96SW2 whole entry): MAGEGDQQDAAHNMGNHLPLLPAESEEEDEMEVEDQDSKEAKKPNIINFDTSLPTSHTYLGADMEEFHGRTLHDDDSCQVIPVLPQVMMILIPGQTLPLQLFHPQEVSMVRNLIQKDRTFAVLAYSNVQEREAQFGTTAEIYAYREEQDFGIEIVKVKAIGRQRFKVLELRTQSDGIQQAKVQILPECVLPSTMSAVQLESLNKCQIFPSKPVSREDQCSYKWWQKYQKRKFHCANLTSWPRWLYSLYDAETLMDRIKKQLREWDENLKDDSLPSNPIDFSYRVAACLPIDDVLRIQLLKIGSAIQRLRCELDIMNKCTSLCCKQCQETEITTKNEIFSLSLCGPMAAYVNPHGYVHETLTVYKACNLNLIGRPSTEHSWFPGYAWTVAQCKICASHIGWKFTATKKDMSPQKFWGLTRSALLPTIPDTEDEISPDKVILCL
Sequence of CRBN-DDB1 (Q16531 whole entry partner): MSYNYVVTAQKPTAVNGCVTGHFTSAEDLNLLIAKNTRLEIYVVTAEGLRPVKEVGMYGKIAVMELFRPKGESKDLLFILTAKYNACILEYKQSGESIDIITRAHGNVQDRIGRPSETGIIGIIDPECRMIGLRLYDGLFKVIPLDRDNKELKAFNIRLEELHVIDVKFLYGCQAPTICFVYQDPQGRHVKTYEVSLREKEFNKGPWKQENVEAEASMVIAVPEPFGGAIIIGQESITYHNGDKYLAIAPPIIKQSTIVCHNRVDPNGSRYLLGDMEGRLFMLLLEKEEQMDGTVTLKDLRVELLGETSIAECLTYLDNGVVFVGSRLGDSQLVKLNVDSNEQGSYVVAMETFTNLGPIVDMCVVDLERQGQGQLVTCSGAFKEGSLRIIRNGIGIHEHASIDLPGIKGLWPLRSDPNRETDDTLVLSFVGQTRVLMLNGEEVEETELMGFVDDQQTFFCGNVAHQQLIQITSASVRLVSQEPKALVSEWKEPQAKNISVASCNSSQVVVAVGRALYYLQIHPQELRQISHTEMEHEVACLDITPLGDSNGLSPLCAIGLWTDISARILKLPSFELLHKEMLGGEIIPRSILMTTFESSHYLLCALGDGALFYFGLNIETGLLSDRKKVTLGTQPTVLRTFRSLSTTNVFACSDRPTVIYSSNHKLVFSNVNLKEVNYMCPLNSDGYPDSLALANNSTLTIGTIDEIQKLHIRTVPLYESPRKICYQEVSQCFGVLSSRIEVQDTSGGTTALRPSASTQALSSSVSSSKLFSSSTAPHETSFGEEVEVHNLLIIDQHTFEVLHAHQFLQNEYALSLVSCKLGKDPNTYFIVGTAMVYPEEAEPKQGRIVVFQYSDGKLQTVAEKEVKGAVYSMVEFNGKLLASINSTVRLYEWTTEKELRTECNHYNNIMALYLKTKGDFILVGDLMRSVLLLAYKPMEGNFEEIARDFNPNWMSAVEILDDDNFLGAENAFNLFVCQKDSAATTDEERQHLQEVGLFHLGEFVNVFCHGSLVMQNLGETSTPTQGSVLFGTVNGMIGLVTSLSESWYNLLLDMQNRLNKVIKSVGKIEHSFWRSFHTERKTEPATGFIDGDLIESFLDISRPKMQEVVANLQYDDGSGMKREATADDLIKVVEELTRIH

At CRBN-DDB1, `O=C1CCC(N2Cc3ccc(CNC(=O)OCc4cccc(-c5cccc(C(F)(F)F)c5)c4)cc3C2=O)C(=O)N1` (stereo not shown) [Compound 11, (3′-(trifluoromethyl)-[1,1′-biphenyl]-3-yl)methyl ((2-(2,6-dioxopiperidin-3-yl)-3-oxoisoindolin-5-yl)methyl)carbamate] had a pKi of 6.00 to 7.00. The compound further had a maximal degradation (Dmax) at CDK2 of 50 to 80%.
In the same order, the values of `O=C1CCC(N2Cc3ccc(CNC(=O)OCc4ccc(Cl)cc4)cc3C2=O)C(=O)N1` (stereo not shown) [Compound 24, (4-chlorophenyl)methyl N-{[2-(2,6-dioxopiperidin-3-yl)-3-oxo-2,3-dihydro-1H-isoindol-5-yl]methyl}carbamate] are at least 7.00 and at most 10%.
In the same order, the values of `N#Cc1cc(CNc2nnc(-c3ccccc3)o2)cc2c1CN(C1CCC(=O)NC1=O)C2=O` (stereo not shown) [Compound 70, 2-(2,6-dioxopiperidin-3-yl)-1-oxo-6-(((5-phenyl-1,3,4-oxadiazol-2-yl)amino)methyl)isoindoline-4-carbonitrile] are 6.00 to 7.00 and 10 to 50%.
The matching figures for `O=C1CCC(N2Cc3ccc(CNC(=O)OCc4ccccc4)cc3C2=O)C(=O)N1` (stereo not shown) [Compound 20, benzyl ((2-(2,6-dioxopiperidin-3-yl)-3-oxoisoindolin-5-yl)methyl)carbamate]: 6.00 to 7.00 and 10 to 50%.
The compound `CCC(C)(C)c1ccc(COC(=O)NCc2ccc3c(c2)C(=O)N(C2CCC(=O)NC2=O)C3)cc1` (stereo not shown) [Compound 36, [4-(2-methylbutan-2-yl)phenyl]methyl N-{[2-(2,6-dioxopiperidin-3-yl)-3-oxo-2,3-dihydro-1H-isoindol-5-yl]methyl}carbamate] showed a pKi at CRBN-DDB1 of 6.00 to 7.00. This compound also gave a Dmax on CDK2 of 10 to 50%.
In the case of `O=C1CCC(N2Cc3ccc(CNC(=O)OCc4cccc(-c5ccc(F)cc5)c4)cc3C2=O)C(=O)N1` (stereo not shown) [Compound 51, {4′-fluoro-[1,1′-biphenyl]-3-yl}methyl N-{[2-(2,6-dioxopiperidin-3-yl)-3-oxo-2,3-dihydro-1H-isoindol-5-yl]methyl}carbamate], the negative-log Ki (pKi) on CRBN-DDB1 is 6.00 to 7.00. Further, at CDK2, the Dmax lay within 10 to 50%.
The matching figures for `CCOc1c(C)cc(COC(=O)NCc2ccc3c(c2)C(=O)N(C2CCC(=O)NC2=O)C3)cc1C` (stereo not shown) [Compound 34, (4-ethoxy-3,5-dimethylphenyl)methyl N-{[2-(2,6-dioxopiperidin-3-yl)-3-oxo-2,3-dihydro-1H-isoindol-5-yl]methyl}carbamate]: at least 7.00 and 10 to 50%.
Take `O=C1CCC(N2Cc3ccc(CNC(=O)OCc4ccc(C(F)(F)F)nc4)cc3C2=O)C(=O)N1` (stereo not shown) [Compound 66, [6-(trifluoromethyl)pyridin-3-yl]methyl N-{[2-(2,6-dioxopiperidin-3-yl)-3-oxo-2,3-dihydro-1H-isoindol-5-yl]methyl}carbamate]: at CRBN-DDB1, the pKi is at least 7.00. The Dmax on CDK2 was in the range of 10 to 50%.
In the case of `O=C1CCC(N2Cc3ccc(CNC(=O)OCc4cccc(SC(F)(F)F)c4)cc3C2=O)C(=O)N1` (stereo not shown) [Compound 56, {3-[(trifluoromethyl)sulfanyl]phenyl}methyl N-{[2-(2,6-dioxopiperidin-3-yl)-3-oxo-2,3-dihydro-1H-isoindol-5-yl]methyl}carbamate], at CRBN-DDB1, the pKi is at least 7.00. At CDK2, this compound came in with a Dmax of 10 to 50%.
As to `O=C1CCC(N2Cc3ccc(CNC(=O)OCc4cccc(-c5cccc(F)c5)c4)cc3C2=O)C(=O)N1` (stereo not shown) [Compound 10, (3′-fluoro-[1,1′-biphenyl]-3-yl)methyl ((2-(2,6-dioxopiperidin-3-yl)-3-oxoisoindolin-5-yl)methyl)carbamate], the pKi at CRBN-DDB1 was 6.00 to 7.00. The compound also registered a Dmax at CDK2 of 50 to 80%.
In turn, `O=C1CCC(N2Cc3ccc(CNC(=O)OCc4cccc([N+](=O)[O-])c4)cc3C2=O)C(=O)N1` (stereo not shown) [Compound 32, (3-nitrophenyl)methyl N-{[2-(2,6-dioxopiperidin-3-yl)-3-oxo-2,3-dihydro-1H-isoindol-5-yl]methyl}carbamate] gave a pKi on CRBN-DDB1 of 6.00 to 7.00. Further, the Dmax at CDK2 is at most 10%.
Compound `O=C1CCC(N2Cc3ccc(CNC(=O)OCc4cccc(OCC(F)(F)F)c4)cc3C2=O)C(=O)N1` (stereo not shown) [Compound 54, [3-(2,2,2-trifluoroethoxy)phenyl]methyl N-{[2-(2,6-dioxopiperidin-3-yl)-3-oxo-2,3-dihydro-1H-isoindol-5-yl]methyl}carbamate] had a pKi on CRBN-DDB1 of 6.00 to 7.00. This compound showed a Dmax at CDK2 of 10 to 50%.
In the same order, the values of `CC(C)Oc1cccc(COC(=O)NCc2ccc3c(c2)C(=O)N(C2CCC(=O)NC2=O)C3)c1` (stereo not shown) [Compound 38, [3-(propan-2-yloxy)phenyl]methyl N-{[2-(2,6-dioxopiperidin-3-yl)-3-oxo-2,3-dihydro-1H-isoindol-5-yl]methyl}carbamate] are 6.00 to 7.00 and 10 to 50%.
In the same order, the values of `O=C1CCC(N2Cc3ccc(CNC(=O)OCc4ccc(CC(F)(F)F)cc4)cc3C2=O)C(=O)N1` (stereo not shown) [Compound 42, [4-(2,2,2-trifluoroethyl)phenyl]methyl N-{[2-(2,6-dioxopiperidin-3-yl)-3-oxo-2,3-dihydro-1H-isoindol-5-yl]methyl}carbamate] are at least 7.00 and 10 to 50%.
With `O=C1CCC(N2Cc3ccc(CNC(=O)OCc4ccc(OC(F)(F)F)cc4F)cc3C2=O)C(=O)N1` (stereo not shown) [Compound 57, [2-fluoro-4-(trifluoromethoxy)phenyl]methyl N-{[2-(2,6-dioxopiperidin-3-yl)-3-oxo-2,3-dihydro-1H-isoindol-5-yl]methyl}carbamate], at CRBN-DDB1, the pKi is at least 7.00. At CDK2, the Dmax is 10 to 50%.
In the same order, the values of `O=C1CCC(N2Cc3ccc(CCNC(=O)OCc4ccc(OC5CCOCC5)nc4)cc3C2=O)C(=O)N1` (stereo not shown) [Compound 1, (6-((tetrahydro-2H-pyran-4-yl)oxy)pyridin-3-yl)methyl (2-(2-(2,6-dioxopiperidin-3-yl)-3-oxoisoindolin-5-yl)ethyl)carbamate] are 6.00 to 7.00 and 10 to 50%.
`O=C1CCC(N2Cc3ccc(CNC(=O)OCc4ccc([N+](=O)[O-])cc4)cc3C2=O)C(=O)N1` (stereo not shown) [Compound 26, (4-nitrophenyl)methyl N-{[2-(2,6-dioxopiperidin-3-yl)-3-oxo-2,3-dihydro-1H-isoindol-5-yl]methyl}carbamate]: the pKi on CRBN-DDB1 was 6.00 to 7.00. Moreover, the Dmax on CDK2 lay within 10 to 50%.
The matching figures for `O=C1CCC(N2Cc3ccc(CNC(=O)OCc4ccc(CN5CCCCC5)cc4)cc3C2=O)C(=O)N1` (stereo not shown) [Compound 53, {4-[(piperidin-1-yl)methyl]phenyl}methyl N-{[2-(2,6-dioxopiperidin-3-yl)-3-oxo-2,3-dihydro-1H-isoindol-5-yl]methyl}carbamate]: 6.00 to 7.00 and at most 10%.
Take `Cc1c(COC(=O)NCc2ccc3c(c2)C(=O)N(C2CCC(=O)NC2=O)C3)cccc1-c1ccccc1` (stereo not shown) [Compound 12, (2-methyl-[1,1′-biphenyl]-3-yl)methyl ((2-(2,6-dioxopiperidin-3-yl)-3-oxoisoindolin-5-yl)methyl)carbamate]: the pKi on CRBN-DDB1 was at least 7.00. On CDK2, the Dmax lay in the range of 50 to 80%.
For the compound `CCCc1ccc(COC(=O)NCc2ccc3c(c2)C(=O)N(C2CCC(=O)NC2=O)C3)cc1` (stereo not shown) [Compound 43, (4-propylphenyl)methyl N-{[2-(2,6-dioxopiperidin-3-yl)-3-oxo-2,3-dihydro-1H-isoindol-5-yl]methyl}carbamate], at CRBN-DDB1, the pKi is at least 7.00. This compound also registered a Dmax on CDK2 of 10 to 50%.
